Source: publication PMC6315349 (2018)

Assays:
Assay in all cases: fluorescence turn-on
[1] = system: RNA half adder + AND_DNA inhibitor + XOR_DNA inhibitor (0-0) (DNA:RNA, aptamer) GGUGCCCGCUGACCGGAGACGGUCAAAUAGAGCACAGGAUGGUAACGAAUGACCAGCCCGAGGUCGCGACCUUCUUUUCCCUCGCGACUCGAAAUGUUUCUUUUCGAGGUCGCCCCGUAUCUGUCGAGUAGAGUGUGGGCUCGCACGCGGCUGCC/GGCGGCTGCCGCGCAGAGACGGUCGGGUCCAGAUAUUGGAUCUUUCGCCUUUUCGCGAUACGGGCCAACGAUGGGUUUUGAAGGUCGCGACAAGGGCUGGTCCGACAUCCCACACAAATAGAGTGTGGGCCGAGCAGCGGCACC/GGUGCCCGCUGACCGGAGACGGUCAAAUAGAGCACAGGAUGGUAACGAAUGACCAGCCCGAGGGCGACCUCGUUUUGUACCAGCAUCCUCUUCAUAAGUUUUGGCGAAAGAUCCCGUAUCUGUCGAGUAGAGUGUGGGCUCGCACGCGGCUGCC/GGCGGCUGCCGCGCAGAGACGGUCGGGUCCAGAUAUUGGGCGACCUCGUUUUCCGGGAUAUGGUCUCGGCCAACUUUUCGAGGUCGCCCAAGGGCUGGUCCGACAUCCCACACAAAUAGAGUGUGGGCCGAGCAGCGGCAGC/GGAUGCUGGUACUUUUGUUGGCCGAGACCAUAUCCCGGUUUUGAAACAUUUCGAGUCGCGAGGGUUUUCCCAUCGUUGGCCCGUAUCGCGUUUUCUUAUGAAGA/ATAACAGCGCGTAGGGCCACGCTGCCGCTGCTCGGCCCACACTCTATTTGACCGGGATGTCGGACCAGCTGGTCATTCCTTACCATCCCACACTCTATTTGACCGTCTCCGGTCAGCGGGCAGGCGAGCCCTACGCGCTGTTAT/GGCAGCCGCGTGTGCCGCTGGCTCGGCCACACTCTATTTGACCGTCCGGTGCGAGCTGCGCGGCGAGCCCTA; details: 22 °C, 1 μM RNA strands, 2 μM each inhibitor, 5 μM dye
[2] = system: NAND gate + NAND_input A + NAND input B (1-1) (DNA:RNA, aptamer) GGUUUGCAAACAUGCUUUGGAUGGUAACGAAUGACCAGCCCGAAAGGGCUGGUCCGACAUCCUUUGGGAAAUCCUUU/CTATAGCATGTTTGC/TTGATTTCCCTTTGGT; details: 100 mM NaCl, 10 mM MgCl2; 50 mM Tris pH 8.0, 22 °C; 2 μM dye; output OFF (<60% normalized)
[3] = system: OR gate + OR_input B (0-1) (DNA:RNA, aptamer) GGUUUCAACCUUUGCAAACAUGCUUUGGAUGGUAACGAAUGACCAGCCCGAAAGGGCUGGUCCGACAUCCUUUGGGAAAUCCUUUGGGUGCCGUUU/AAACGGCGTCCAAAGGATTTCCC; details: 100 mM NaCl, 10 mM MgCl2; 50 mM Tris pH 8.0, 22 °C; 1 μM RNA, 2 μM dye, 2 μM each input; output ON
[4] = system: AND gate + AND_input A + AND_input B (1-1) (DNA:RNA, aptamer) GGUUUCAACCUUUGCAAACAUGCUUUGGAUGGUAACGAAUGACCAGCCCGAAAGGGCUGGUCCGACAUCCUUUGGGAAAUCCUUUGGGUGCCGUUU/GTAAGCTTTGGTTGA/AAACAGCGTCCAGAGGAT; details: 100 mM NaCl, 10 mM MgCl2; 50 mM Tris pH 8.0, 22 °C; 1 μM RNA, 2 μM dye, 2 μM each input; output ON
[5] = system: OR gate + OR_input A (1-0) (DNA:RNA, aptamer) GGUUUCAACCUUUGCAAACAUGCUUUGGAUGGUAACGAAUGACCAGCCCGAAAGGGCUGGUCCGACAUCCUUUGGGAAAUCCUUUGGGUGCCGUUU/GCATGTTTGCAAAGGTTGAAA; details: 100 mM NaCl, 10 mM MgCl2; 50 mM Tris pH 8.0, 22 °C; 1 μM RNA, 2 μM dye, 2 μM each input; output ON
[6] = system: NAND gate + NAND input B (0-1) (DNA:RNA, aptamer) GGUUUGCAAACAUGCUUUGGAUGGUAACGAAUGACCAGCCCGAAAGGGCUGGUCCGACAUCCUUUGGGAAAUCCUUU/TTGATTTCCCTTTGGT; details: 100 mM NaCl, 10 mM MgCl2; 50 mM Tris pH 8.0, 22 °C; 2 μM dye; fluorescence slightly higher than without input
[7] = system: OR gate + OR_input A + OR_input B (1-1) (DNA:RNA, aptamer) GGUUUCAACCUUUGCAAACAUGCUUUGGAUGGUAACGAAUGACCAGCCCGAAAGGGCUGGUCCGACAUCCUUUGGGAAAUCCUUUGGGUGCCGUUU/GCATGTTTGCAAAGGTTGAAA/AAACGGCGTCCAAAGGATTTCCC; details: 100 mM NaCl, 10 mM MgCl2; 50 mM Tris pH 8.0, 22 °C; 1 μM RNA, 2 μM dye, 2 μM each input; output ON
[8] = system: RNA NAND/NOR gate (no inputs, 0-0) (RNA, aptamer) GGUUUGCAAACAUGCUUUGGAUGGUAACGAAUGACCAGCCCGAAAGGGCUGGUCCGACAUCCUUUGGGAAAUCCUUU; details: 100 mM NaCl, 10 mM MgCl2; 50 mM Tris pH 8.0, 22 °C; 1 μM RNA, 2 μM dye; output ON
[9] = system: NOR gate + NOR_input A + NOR_input B (1-1) (DNA:RNA, aptamer) GGUUUGCAAACAUGCUUUGGAUGGUAACGAAUGACCAGCCCGAAAGGGCUGGUCCGACAUCCUUUGGGAAAUCCUUU/CCATCCAAAGCATGTTTGCAAA/AAAGGATTTCCCAAAGGATGTCGGACC; details: 100 mM NaCl, 10 mM MgCl2; 50 mM Tris pH 8.0, 22 °C; 1 μM RNA, 2 μM dye, 2 μM each input; output OFF
[10] = system: NOR gate + NOR_input A (1-0) (DNA:RNA, aptamer) GGUUUGCAAACAUGCUUUGGAUGGUAACGAAUGACCAGCCCGAAAGGGCUGGUCCGACAUCCUUUGGGAAAUCCUUU/CCATCCAAAGCATGTTTGCAAA; details: 100 mM NaCl, 10 mM MgCl2; 50 mM Tris pH 8.0, 22 °C; 1 μM RNA, 2 μM dye, 2 μM each input; output OFF
[11] = system: NAND gate + NAND_input A (1-0) (DNA:RNA, aptamer) GGUUUGCAAACAUGCUUUGGAUGGUAACGAAUGACCAGCCCGAAAGGGCUGGUCCGACAUCCUUUGGGAAAUCCUUU/CTATAGCATGTTTGC; details: 100 mM NaCl, 10 mM MgCl2; 50 mM Tris pH 8.0, 22 °C; 2 μM dye; fluorescence lower than without input
[12] = system: AND gate + AND_input A (1-0) (DNA:RNA, aptamer) GGUUUCAACCUUUGCAAACAUGCUUUGGAUGGUAACGAAUGACCAGCCCGAAAGGGCUGGUCCGACAUCCUUUGGGAAAUCCUUUGGGUGCCGUUU/GTAAGCTTTGGTTGA …; details: 100 mM NaCl, 10 mM MgCl2; 50 mM Tris pH 8.0, 22 °C; 2 μM dye, 2 μM input; output OFF (<60% normalized)
[13] = system: AND gate + AND_input B (0-1) (DNA:RNA, aptamer) GGUUUCAACCUUUGCAAACAUGCUUUGGAUGGUAACGAAUGACCAGCCCGAAAGGGCUGGUCCGACAUCCUUUGGGAAAUCCUUUGGGUGCCGUUU/AAACAGCGTCCAGAGGAT; details: 100 mM NaCl, 10 mM MgCl2; 50 mM Tris pH 8.0, 22 °C; 2 μM dye, 2 μM input; output OFF (<60% normalized)
[14] = system: RNA AND/OR gate (no inputs, 0-0) (RNA, aptamer) GGUUUCAACCUUUGCAAACAUGCUUUGGAUGGUAACGAAUGACCAGCCCGAAAGGGCUGGUCCGACAUCCUUUGGGAAAUCCUUUGGGUGCCGUUU; details: 100 mM NaCl, 10 mM MgCl2; 50 mM Tris pH 8.0, 22 °C; 1 μM RNA, 2 μM dye; output OFF (<60% normalized)
[15] = system: NOR gate + NOR_input B (0-1) (DNA:RNA, aptamer) GGUUUGCAAACAUGCUUUGGAUGGUAACGAAUGACCAGCCCGAAAGGGCUGGUCCGACAUCCUUUGGGAAAUCCUUU/AAAGGATTTCCCAAAGGATGTCGGACC; details: 100 mM NaCl, 10 mM MgCl2; 50 mM Tris pH 8.0, 22 °C; 1 μM RNA, 2 μM dye, 2 μM each input; output OFF

| Structure (SMILES) | binding ([1]; low fluorescence at 510 nm) | binding [2] | binding [3] | binding [4] | binding [5] | binding ([1]; low fluorescence at 650 nm) | binding [6] | binding [7] | binding [8] | binding [9] | binding [10] | binding [11] | binding [12] | binding [13] | binding [14] | binding [15] |
| --- | --- | --- | --- | --- | --- | --- | --- | --- | --- | --- | --- | --- | --- | --- | --- | --- |
| CC1=N/C(=C\c2cc(F)c(O)c(F)c2)C(=O)N1C | no |  |  |  |  |  |  |  |  |  |  |  |  |  |  |  |
| CN(C)c1ccc(C(=C2C=CC(=[N+](C)C)C=C2)c2ccccc2)cc1 |  | weak | yes | yes | yes | no | yes | yes | yes | no | no | yes | weak | weak | no | no |
